Measured values reported in ChEMBL document CHEMBL1201862, “PubChem BioAssay data set” (2004).
pIC50: −log10 of the molar value. Activity calls are given as the source filed them.

Tests used:
[1] = molecular target: Alkaline phosphatase, placental type (Homo sapiens, UniProt P05187); test: human placental alkaline phosphatase inhibition – biochemical, luminescence, confirmation (AID 1512); assay type: functional
[2] = molecular target: T1, Alkaline phosphatase, tissue-nonspecific isozyme (Homo sapiens, UniProt P05186); test: potency against alkaline phosphatase TNAP – biochemical, luminescent, dose response, SAR follow-up (AID 1056)
T1 sequence (P05186 whole entry): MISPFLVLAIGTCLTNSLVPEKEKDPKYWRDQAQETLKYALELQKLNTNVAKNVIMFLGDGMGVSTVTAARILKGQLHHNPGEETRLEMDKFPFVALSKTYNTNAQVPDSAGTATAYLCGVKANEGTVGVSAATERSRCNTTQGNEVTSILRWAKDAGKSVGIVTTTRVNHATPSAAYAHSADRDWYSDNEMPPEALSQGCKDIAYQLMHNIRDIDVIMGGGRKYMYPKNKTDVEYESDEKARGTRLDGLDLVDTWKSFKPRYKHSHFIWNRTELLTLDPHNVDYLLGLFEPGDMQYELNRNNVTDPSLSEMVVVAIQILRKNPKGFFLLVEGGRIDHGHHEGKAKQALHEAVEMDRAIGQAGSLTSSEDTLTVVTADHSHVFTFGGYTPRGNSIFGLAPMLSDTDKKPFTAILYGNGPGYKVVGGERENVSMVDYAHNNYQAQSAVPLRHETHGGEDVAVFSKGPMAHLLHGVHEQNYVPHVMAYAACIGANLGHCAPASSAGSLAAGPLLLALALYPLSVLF

Leucine aminopeptidase = molecular target: T2, Leucine aminopeptidase (Plasmodium falciparum 3D7, UniProt Q8IL11); test: P. falciparum M17LAP inhibitors, primary screen, biochemical, fluorogenic H-Leu-NHMec substrate, 1536-well (AID 1619); assay type: functional
T2 sequence (Q8IL11 whole entry): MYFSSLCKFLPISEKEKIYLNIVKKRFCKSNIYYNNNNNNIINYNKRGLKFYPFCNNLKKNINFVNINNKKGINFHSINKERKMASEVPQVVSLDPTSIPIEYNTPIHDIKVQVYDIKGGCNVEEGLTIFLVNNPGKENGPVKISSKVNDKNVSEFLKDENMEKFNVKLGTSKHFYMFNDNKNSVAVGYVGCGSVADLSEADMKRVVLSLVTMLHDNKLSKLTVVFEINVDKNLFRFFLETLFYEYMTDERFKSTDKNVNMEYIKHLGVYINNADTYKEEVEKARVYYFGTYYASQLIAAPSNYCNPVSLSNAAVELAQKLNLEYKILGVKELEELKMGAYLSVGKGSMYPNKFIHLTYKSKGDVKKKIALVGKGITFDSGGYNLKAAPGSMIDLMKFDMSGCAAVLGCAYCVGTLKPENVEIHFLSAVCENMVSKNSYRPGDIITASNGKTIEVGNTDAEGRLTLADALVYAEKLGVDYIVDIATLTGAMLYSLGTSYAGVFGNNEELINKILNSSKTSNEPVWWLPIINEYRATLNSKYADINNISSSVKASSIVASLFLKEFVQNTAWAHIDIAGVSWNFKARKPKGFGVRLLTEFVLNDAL

[3] = molecular target: T3, Kappa-type opioid receptor (Homo sapiens, UniProt P41145); test: kappa opioid receptor blockers, cell-based, luminescence, beta-arrestin, SAR follow-up (AID 2285); assay type: functional
T3 sequence (P41145 whole entry): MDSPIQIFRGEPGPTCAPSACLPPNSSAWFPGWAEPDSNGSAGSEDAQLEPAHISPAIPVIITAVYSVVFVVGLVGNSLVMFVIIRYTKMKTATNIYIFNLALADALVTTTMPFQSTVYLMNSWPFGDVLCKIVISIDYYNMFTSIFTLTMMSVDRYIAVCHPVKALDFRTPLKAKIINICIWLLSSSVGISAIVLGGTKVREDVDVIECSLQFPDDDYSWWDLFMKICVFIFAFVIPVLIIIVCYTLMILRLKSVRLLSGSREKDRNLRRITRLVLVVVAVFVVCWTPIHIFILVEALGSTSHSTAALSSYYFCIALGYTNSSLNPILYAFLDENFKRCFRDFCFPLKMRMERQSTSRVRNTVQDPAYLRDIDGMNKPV

[4] = molecular target: T3, Kappa-type opioid receptor; test: kappa opioid receptor blockers, image-based, SAR follow-up (AID 2348); assay type: functional
[5] = molecular target: T3, Kappa-type opioid receptor; test: kappa opioid receptor activation potency – imaging, image-based, SAR follow-up (AID 2359); assay type: functional
[6] = molecular target: T3, Kappa-type opioid receptor; assay type: functional
[7] = molecular target: T3, Kappa-type opioid receptor; assay type: functional; remark: listed apart in the source
[8] = molecular target: T4, Tyrosine-protein phosphatase non-receptor type 7 (Homo sapiens, UniProt P35236); test: SAR analysis of chemical inhibitors of HePTP using a Fluorescent assay - Set 2. [Related pubchem assays (depositor defined):AID1059, AID1077, AID1661, AID2085, AID521]; assay type: functional
T4 sequence (P35236 whole entry): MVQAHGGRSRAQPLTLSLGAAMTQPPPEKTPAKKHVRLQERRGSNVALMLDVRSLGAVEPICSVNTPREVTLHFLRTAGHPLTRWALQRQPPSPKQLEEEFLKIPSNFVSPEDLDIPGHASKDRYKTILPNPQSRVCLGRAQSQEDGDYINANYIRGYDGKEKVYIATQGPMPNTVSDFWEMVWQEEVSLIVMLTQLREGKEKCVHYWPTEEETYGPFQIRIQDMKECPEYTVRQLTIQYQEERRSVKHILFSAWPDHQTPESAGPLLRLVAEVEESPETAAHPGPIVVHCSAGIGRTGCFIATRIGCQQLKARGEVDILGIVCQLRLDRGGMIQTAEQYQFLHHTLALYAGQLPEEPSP

[9] = molecular target: T5, Delta-type opioid receptor (Homo sapiens, UniProt P41143); test: delta opioid receptor blockers – image-based, SAR follow-up (AID 2357); assay type: functional
T5 sequence (P41143 whole entry): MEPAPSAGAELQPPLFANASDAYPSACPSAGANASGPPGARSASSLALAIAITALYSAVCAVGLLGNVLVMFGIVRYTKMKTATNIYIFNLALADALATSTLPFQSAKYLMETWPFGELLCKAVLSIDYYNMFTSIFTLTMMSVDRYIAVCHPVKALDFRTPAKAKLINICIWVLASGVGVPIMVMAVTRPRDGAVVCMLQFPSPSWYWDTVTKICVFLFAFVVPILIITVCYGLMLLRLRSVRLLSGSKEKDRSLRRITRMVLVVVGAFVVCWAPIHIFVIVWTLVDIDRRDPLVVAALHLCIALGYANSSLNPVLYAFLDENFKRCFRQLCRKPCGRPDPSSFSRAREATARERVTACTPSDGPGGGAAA

Mu-type opioid receptor [10] = molecular target: T6, Mu-type opioid receptor (Homo sapiens, UniProt P35372); test: mu opioid receptor blockers – image-based, SAR follow-up (AID 2420); assay type: functional;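 also: compounds added before stimulation of receptor with agonist DAMGO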
T6 sequence (P35372 whole entry): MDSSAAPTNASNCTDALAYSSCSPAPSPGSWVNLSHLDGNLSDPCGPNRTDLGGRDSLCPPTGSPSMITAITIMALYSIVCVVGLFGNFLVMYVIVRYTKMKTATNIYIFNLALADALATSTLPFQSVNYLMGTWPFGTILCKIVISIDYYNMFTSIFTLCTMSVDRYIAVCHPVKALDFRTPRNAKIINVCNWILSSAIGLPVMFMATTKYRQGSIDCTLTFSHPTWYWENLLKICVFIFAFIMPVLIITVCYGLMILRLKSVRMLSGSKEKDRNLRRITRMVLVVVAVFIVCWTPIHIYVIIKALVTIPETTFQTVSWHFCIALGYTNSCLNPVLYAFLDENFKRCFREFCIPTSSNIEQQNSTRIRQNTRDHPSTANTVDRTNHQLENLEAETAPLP

Mu-type opioid receptor [11] = molecular target: T6, Mu-type opioid receptor; test: mu opioid receptor activators, image-based, SAR follow-up (AID 2352); assay type: functional
[12] = test system: Streptococcus sp. 'group A'; test: Streptococcus pyogenes SK(-)GAS viability under kanamycin – luminescence, BacTiterGlo, confirmation, counter-screen for streptokinase expression inhibitor project, dose response (AID 1900); assay type: functional, organism-based
[13] = molecular target: T5, Delta-type opioid receptor; test: DOR agonists, SAR follow-up, image-based (AID 2370); assay type: functional
Streptokinase A = molecular target: T7, Streptokinase A (Streptococcus pyogenes serotype M1, UniProt P10520); test: viability-normalized secreted streptokinase activity reduction – plasminogen activation absorbance, OD405, dose response (AID 1914); assay type: functional, Streptococcus pyogenes M1 GAS;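 also: secreted streptokinase activity via plasminogen activation per viability signal from cell pellet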
T7 sequence (P10520 whole entry): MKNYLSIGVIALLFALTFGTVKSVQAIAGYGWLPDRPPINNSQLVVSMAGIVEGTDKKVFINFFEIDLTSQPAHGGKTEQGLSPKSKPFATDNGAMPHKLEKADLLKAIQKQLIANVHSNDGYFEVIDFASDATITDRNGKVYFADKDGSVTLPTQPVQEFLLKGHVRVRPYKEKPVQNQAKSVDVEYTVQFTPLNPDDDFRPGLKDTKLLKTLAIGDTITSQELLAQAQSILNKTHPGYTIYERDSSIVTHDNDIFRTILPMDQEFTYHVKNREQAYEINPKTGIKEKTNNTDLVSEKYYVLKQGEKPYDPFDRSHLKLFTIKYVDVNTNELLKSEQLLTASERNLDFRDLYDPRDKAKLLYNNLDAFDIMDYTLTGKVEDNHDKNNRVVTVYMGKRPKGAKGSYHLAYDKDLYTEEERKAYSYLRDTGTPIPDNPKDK

Streptococcus = test: GAS UMAA2166 growth inhibition – luminescence, BacTiterGlo, counter-screen for streptokinase expression inhibitor project, dose response (AID 1915); assay type: functional, organism-based;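 also: potency for reduction of bacterial viability or growth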
Beta-galactosidase = Beta-galactosidase (Escherichia coli, UniProt Q8VNN2); assay type: functional
Sequence of Beta-galactosidase (Q8VNN2 whole entry): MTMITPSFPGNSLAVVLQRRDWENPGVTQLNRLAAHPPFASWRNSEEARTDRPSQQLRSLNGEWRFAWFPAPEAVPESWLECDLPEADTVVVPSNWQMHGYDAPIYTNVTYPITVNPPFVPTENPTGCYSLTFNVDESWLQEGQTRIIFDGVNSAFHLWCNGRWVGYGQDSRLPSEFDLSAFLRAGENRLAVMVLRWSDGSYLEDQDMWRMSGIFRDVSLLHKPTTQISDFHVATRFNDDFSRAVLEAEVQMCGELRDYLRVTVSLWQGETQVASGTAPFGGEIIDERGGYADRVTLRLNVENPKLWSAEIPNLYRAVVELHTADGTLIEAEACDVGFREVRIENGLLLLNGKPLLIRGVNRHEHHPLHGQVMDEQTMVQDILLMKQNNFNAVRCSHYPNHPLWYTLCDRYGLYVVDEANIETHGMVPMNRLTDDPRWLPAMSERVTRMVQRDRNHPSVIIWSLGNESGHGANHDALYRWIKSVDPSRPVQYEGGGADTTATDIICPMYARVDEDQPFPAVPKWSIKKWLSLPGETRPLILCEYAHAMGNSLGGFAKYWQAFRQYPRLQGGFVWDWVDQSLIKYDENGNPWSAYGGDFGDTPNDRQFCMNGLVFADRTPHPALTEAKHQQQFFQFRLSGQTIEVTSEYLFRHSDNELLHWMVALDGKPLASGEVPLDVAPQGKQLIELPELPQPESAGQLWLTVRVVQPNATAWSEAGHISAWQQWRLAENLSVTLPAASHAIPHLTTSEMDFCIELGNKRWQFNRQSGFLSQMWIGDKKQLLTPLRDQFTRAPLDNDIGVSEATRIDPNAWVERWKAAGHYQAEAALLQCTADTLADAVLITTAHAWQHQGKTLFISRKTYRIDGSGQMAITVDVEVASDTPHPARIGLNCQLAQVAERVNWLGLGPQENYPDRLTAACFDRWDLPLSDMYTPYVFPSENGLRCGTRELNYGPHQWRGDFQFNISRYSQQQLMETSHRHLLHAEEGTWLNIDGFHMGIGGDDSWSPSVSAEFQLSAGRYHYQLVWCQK

[14] = molecular target: Dual specificity protein phosphatase 3 (Homo sapiens, UniProt P51452); test: SAR VHR1 Fluorescent Assay for In Vitro dose response studies Set 2. [Related pubchem assays (depositor defined):AID1654, AID1661, AID1878]; assay type: functional
Sequence of Dual specificity protein phosphatase 3 (P51452 whole entry): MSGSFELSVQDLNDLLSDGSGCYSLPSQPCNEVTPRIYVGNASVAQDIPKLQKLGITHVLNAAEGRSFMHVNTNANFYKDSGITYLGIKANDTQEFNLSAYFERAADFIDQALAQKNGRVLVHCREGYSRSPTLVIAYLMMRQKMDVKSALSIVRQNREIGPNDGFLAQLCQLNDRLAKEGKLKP

INS1 = test: INS-1E survival protection against cytokine death – cell-based, luminescence, retest, dose response (AID 449756); assay type: functional; details: Rattus norvegicus;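 also: cell death triggered by IL-1 beta plus TNF-alpha plus IFN-gamma mixture; protective hits raise ATP signal compared with cytokine alone wells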
[15] = loss of viability in HepG2 cells – cell-based, CellTiter-Glo, cherry-picked, cytotoxicity control for Shn3 inhibitor project, dose response (AID 624134); assay type: functional
[16] = non-specific 3'UTR reporter inhibition in Clone20-Shn3RL – cell-based, Renilla luciferase, cherry-picked, counter-screen for Shn3 inhibitor project, dose response (AID 624133); assay type: functional
Hexokinase-1 = molecular target: T8, Hexokinase-1 (Homo sapiens, UniProt P19367); test: HK1 enzyme activation by HKDC1 hits – biochemical, selectivity assay for HKDC1 activator project, dose response (AID 504762); assay type: functional
T8 sequence (P19367 whole entry): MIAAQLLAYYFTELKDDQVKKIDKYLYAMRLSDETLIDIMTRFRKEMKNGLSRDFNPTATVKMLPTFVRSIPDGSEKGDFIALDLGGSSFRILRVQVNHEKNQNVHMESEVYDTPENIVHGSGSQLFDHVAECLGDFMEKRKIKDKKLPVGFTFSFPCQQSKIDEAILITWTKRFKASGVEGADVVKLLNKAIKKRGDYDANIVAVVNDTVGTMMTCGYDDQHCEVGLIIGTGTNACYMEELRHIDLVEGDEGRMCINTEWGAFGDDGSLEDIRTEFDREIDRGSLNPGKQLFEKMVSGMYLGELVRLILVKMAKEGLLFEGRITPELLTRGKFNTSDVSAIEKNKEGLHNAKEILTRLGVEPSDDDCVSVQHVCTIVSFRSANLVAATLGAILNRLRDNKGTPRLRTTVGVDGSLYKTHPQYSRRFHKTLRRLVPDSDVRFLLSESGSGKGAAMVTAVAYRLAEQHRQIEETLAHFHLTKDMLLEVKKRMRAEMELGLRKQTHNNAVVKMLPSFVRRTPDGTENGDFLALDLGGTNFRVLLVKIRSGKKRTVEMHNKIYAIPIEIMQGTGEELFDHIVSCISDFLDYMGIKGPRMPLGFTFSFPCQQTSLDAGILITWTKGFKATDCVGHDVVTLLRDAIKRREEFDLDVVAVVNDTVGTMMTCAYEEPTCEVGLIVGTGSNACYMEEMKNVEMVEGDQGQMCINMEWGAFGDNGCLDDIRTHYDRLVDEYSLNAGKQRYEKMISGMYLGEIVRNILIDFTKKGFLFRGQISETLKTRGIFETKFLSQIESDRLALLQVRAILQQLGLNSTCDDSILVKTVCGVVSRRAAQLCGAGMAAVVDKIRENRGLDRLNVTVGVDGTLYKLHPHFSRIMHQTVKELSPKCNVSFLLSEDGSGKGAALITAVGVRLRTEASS

Hexokinase HKDC1 = molecular target: T9, Hexokinase HKDC1 (Homo sapiens, UniProt Q2TB90); test: activation of HKDC1 glucose phosphorylation – biochemical, W721R variant, dose response (AID 504730); assay type: functional
T9 sequence (Q2TB90 whole entry): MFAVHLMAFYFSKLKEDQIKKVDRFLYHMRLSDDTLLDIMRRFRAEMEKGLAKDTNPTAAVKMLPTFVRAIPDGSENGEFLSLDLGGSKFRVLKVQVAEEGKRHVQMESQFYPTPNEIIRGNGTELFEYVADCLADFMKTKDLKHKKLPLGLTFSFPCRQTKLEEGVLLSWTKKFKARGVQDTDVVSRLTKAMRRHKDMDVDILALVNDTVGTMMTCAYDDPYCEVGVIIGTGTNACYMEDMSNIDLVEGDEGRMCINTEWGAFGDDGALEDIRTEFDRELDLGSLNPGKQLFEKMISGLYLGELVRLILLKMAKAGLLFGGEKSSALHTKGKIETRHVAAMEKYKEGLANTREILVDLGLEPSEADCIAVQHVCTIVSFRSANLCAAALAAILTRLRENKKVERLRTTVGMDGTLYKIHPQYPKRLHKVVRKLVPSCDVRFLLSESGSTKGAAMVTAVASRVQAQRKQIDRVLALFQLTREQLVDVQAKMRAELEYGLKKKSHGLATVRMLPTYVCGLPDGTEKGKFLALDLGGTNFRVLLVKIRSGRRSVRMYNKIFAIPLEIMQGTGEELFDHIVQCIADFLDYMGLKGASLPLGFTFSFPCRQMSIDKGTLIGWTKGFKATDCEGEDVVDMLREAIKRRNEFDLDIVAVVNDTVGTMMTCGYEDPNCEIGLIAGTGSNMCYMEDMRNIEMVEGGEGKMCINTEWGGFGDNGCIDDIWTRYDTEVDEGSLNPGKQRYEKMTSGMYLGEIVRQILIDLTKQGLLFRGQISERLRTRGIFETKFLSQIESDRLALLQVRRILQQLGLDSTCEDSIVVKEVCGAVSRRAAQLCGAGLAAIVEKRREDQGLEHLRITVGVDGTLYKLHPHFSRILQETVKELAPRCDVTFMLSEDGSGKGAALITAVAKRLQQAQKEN

[17] = molecular target: Signal transducer and activator of transcription 1-alpha/beta (Homo sapiens, UniProt P42224); test: STAT3 blockade with qPCR and toxicity readouts – cell-based, STAT1 panel, cytotoxicity, late-stage follow-up, panel member STAT1 Inhibition (AID 2078)
Sequence of Signal transducer and activator of transcription 1-alpha/beta (P42224 whole entry): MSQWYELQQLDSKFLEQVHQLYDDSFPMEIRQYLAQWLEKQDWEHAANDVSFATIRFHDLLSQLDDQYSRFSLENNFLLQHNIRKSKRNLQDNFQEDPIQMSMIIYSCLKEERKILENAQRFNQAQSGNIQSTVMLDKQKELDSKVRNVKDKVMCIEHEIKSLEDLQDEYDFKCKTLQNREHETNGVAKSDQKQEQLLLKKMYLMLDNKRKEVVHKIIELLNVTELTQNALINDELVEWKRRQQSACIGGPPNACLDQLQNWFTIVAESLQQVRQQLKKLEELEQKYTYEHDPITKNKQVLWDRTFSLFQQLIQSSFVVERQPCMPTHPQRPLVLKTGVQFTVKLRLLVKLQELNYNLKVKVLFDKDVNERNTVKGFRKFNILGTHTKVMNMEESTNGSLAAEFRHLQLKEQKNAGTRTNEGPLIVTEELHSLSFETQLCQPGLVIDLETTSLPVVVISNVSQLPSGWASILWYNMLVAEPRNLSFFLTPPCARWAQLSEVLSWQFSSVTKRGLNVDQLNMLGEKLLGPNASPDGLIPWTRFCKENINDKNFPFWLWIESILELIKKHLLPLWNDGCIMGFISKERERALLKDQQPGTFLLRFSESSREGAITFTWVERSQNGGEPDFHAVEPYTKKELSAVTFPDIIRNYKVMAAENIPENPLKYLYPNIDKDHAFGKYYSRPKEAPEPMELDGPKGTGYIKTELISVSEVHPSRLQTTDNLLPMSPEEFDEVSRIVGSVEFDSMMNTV

[18] = molecular target: Signal transducer and activator of transcription 3 (Homo sapiens, UniProt P40763); test: STAT3 blockade with qPCR and toxicity readouts – cell-based, STAT1 panel, cytotoxicity, late-stage follow-up, panel member STAT3 Inhibition (AID 2078)
Sequence of Signal transducer and activator of transcription 3 (P40763 whole entry): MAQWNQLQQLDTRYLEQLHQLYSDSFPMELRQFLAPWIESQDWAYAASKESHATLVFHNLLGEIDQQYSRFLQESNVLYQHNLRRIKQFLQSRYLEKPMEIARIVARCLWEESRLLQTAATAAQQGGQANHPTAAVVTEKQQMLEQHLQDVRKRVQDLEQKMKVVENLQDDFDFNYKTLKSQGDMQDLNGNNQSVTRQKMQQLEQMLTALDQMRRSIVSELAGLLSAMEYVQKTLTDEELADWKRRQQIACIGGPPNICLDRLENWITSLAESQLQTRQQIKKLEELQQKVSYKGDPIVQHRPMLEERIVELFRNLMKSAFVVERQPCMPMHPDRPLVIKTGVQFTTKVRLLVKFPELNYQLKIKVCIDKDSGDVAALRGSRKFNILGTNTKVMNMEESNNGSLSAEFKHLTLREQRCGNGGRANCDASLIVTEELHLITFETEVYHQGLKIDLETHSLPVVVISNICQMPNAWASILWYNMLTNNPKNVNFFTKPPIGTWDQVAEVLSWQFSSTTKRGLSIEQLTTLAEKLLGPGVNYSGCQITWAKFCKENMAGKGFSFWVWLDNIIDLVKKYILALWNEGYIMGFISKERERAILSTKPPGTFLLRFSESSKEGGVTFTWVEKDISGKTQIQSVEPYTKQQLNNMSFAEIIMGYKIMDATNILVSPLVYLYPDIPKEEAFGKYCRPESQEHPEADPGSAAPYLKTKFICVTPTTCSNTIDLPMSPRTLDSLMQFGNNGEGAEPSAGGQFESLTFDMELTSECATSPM

Sequence of Alkaline phosphatase, placental type (P05187 whole entry): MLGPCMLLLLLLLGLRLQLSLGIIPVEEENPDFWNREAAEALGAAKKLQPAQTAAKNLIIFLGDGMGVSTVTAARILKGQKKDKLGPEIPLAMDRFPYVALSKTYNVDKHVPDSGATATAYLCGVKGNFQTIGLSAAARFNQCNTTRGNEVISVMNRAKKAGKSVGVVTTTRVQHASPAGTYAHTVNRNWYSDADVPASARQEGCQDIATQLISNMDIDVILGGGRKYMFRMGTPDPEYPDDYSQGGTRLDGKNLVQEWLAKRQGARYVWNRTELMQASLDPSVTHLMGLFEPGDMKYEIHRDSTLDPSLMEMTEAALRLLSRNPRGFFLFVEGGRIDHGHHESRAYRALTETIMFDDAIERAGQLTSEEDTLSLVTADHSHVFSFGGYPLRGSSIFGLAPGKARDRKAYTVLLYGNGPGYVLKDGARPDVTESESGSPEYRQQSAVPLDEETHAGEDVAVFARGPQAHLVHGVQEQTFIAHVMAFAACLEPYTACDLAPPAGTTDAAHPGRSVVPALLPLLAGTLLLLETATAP

CCn1c(SCC(=O)c2ccc(O)c(O)c2)nnc1-c1ccccc1
IC50 [1]: 4.32 µM (active) | IC50 [2]: 35.8 µM (active) | IC50 (Leucine aminopeptidase): 13.3 µM (active)

O=C(NC(NC(=S)Nc1c(Cl)cccc1Cl)C(Cl)(Cl)Cl)OCc1ccccc1 (stereo not drawn)
IC50 [3]: 1.15 µM (active) | IC50 [4]: 740 nM (active) | EC50 [5]: > 32 µM (inactive) | pIC50 [6]: 5.69 | IC50 [7]: 3.48 µM (active) | IC50 [8]: 63 µM (active) | IC50 [9]: > 32 µM (inactive) | IC50 (Mu-type opioid receptor [10]): 8.43 µM (active) | EC50 (Mu-type opioid receptor [11]): > 32 µM (inactive) | EC50 [12]: 1.65 µM (active) | EC50 [13]: > 32 µM (inactive) | EC50 (Streptokinase A): 3.01 µM (active) | EC50 (Streptococcus): 18 µM (active) | EC50 (Beta-galactosidase): > 31.5 µM (inactive) | IC50 [14]: 90 µM (active)

Fc1ccccc1NC1=NN=C(c2ccccc2)CS1
AC50 (INS1): 7.51 µM (active) | AC50 [15]: 33.5 µM (active) | AC50 [16]: 11.1 µM (active) | EC50 (Hexokinase-1): 29.7 µM (inactive) | EC50 [12]: 4.31 µM (active) | EC50 (Streptokinase A): > 150 µM (not active) | EC50 (Streptococcus): 9 µM (active) | EC50 (Hexokinase HKDC1): 20.2 µM (inactive)

c1ccc(CC2CCN(c3ncnc4sc5c(c34)CCCC5)CC2)cc1
IC50 [17]: > 55.7 µM (inactive) | IC50 [18]: > 55.7 µM (inactive)
